Measurements: patent publication US20070111993A1, “Pharmaceutical composition comprising a salt of mirtazapine” (AKZO NOBEL N.V., priority 2004, published 2007)
Where “and” joins values, the source holds several entries; their conditions need not be identical. Identical values can stand only once.

Assays:
Assay type in all cases: physicochemical
[1] = Sublimation test (cold finger, HPLC quantification of sublimate); conditions: for Sublimation (result in words): conditions of the sublimation test, non-sublimating = less than 1% in 72 hours at 150 mBar, 60° C.; for Sublimate: drug substance, Pressure: 150 mbar, Test period: 72 hrs
Text: The property of sublimation can be observed and quantified with known methods to measure sublimation. For example, sublimation can be measured in an apparatus with a chamber in which the test compound is placed in its solid state and maintained in that state by controlled temperature. The gas phase in the chamber, optionally under low pressure, can be analyzed for content of test compound. It is also possible to continuously clear the test compound in the gas phase from the chamber either by a continuous renewal stream of a gas or by creating a sink for the test compound out of the gas phase, for example by a cold surface. The amount of material collected from sublimation or escaped from the sample by sublimation can be analyzed. The degree of sublimation is expressed as the fraction (as percentage) of the initial sample size.
The term ‘non-sublimating’ salt is defined to be a salt of S- or R-mirtazapine, from which less than 1% of the mirtazapine is sublimating from the sample, calculated on the basis of the amount of the base, when a sample of approximately 10 mg (for example an amount between 8-12 mg) is placed for the duration of 72 hours under standard conditions of 150 mBar pressure and 60° C. temperature.
Figure: Schematic presentation of the sublimation test equipment. A sample is placed on the bottom of a vessel, which is closed at the top by a vessel-shaped stopper into which cooling liquid (CL) is circulating and which vessel has an outlet connected to a vacuum pump (Vac). The vessel is placed in a closed chamber under constant temperature control (TC). A sublimate (Subl) can accumulate against the surface of the stopper within the vessel.
A sample (approximately 10 mg) was placed in a sample chamber of sublimation test equipment as illustrated in FIG. 1. The temperature in the sample chamber is controllable. The sample holder has a reduced pressure, which was 150 mBar by default. The sample chamber also consists of a section with reduced temperature (the “cold finger”), where the temperature is approximately 5° C. The majority of material that sublimates in the test sample with high temperature will precipitate on the cold finger. The amount of material on the cold finger after a test period of 72 hrs has been quantified using HPLC analysis. The degree of sublimation is expressed as the fraction material on the cold finger (as percentage) of the initial sample size. Additionally, the sublimation of active compound from tablets “drug product” has been tested.

[2] = Sublimation observations outside the standard test
[3] = Hygroscopicity (dynamic vapor sorption / water uptake from air); conditions: for Hygroscopicity / affinity for water: environmental air, ambient conditions, method not stated; for Hygroscopicity: dynamic vapor sorption measurement
Method: To a solution of 3.01 g of S-mirtazapine in 5 ml of methanol was added at room temperature a solution of 1290 μl of hydrobromic acid in 20 ml of ethyl acetate. […] The mixture was cooled to 0° C. whereupon crystallization started. The white crystals were collected by filtration and were dried in a vacuum oven at 40° C. […] A water free drug substance sample attracts water when it comes in contact with environmental air, while it may loose water upon drying.

[4] = Temperature: 60° C., DL = level of detection

## CN1CCN2c3ncccc3Cc3ccccc3C2C1.O=C(O)C(F)(F)F (stereo not drawn) [S-mirtazapine trifluoroacetic acid salt]
[1]; listed as trifluoroacetic acid salt of S- or R-mirtazapine, trifluoroacetic acid salt
  Sublimation (result in words): showed sublimation
[1]; trifluoroacetic acid salt
  Sublimation (result in words): not a non-sublimating salt

## CN1CCN2c3ncccc3Cc3ccccc3[C@H]2C1 [S-mirtazapine, 1,2,3,4,10,14b-hexahydro-2-methyl-pyrazino[2,1-a]pyrido[2,3-c][2]benzazepine, reference compound]
[2]; ambient temperature
  Sublimation at ambient temperature: slowly sublimating
[1]
  Sublimation (result in words): sublimates at the conditions used
[1]; Temperature: 40° C., fraction of initial sample on cold finger, listed as S-mirtazapine Batch E
  Sublimate: 0.75%
[1]; Temperature: 40° C., fraction of initial sample on cold finger, listed as S-mirtazapine Batch J
  Sublimate: 0.88%
[1]; Temperature: 60° C., DL = level of detection, listed as S-mirtazapine Batch E
  Sublimate: 5.32% and 2.22%
[1]; Temperature: 60° C., DL = level of detection, listed as S-mirtazapine Batch J
  Sublimate: 4.29%

## Br.CN1CCN2c3ncccc3Cc3ccccc3[C@H]2C1 [S-mirtazapine•HBr, S-mirtazapine hydrobromic acid salt]
[3]
  Hygroscopicity / affinity for water: forms a monohydrate under ambient conditions
[1]
  Sublimation (result in words): do not sublimate

## CN1CCN2c3ncccc3Cc3ccccc3[C@H]2C1.Cl [S-mirtazapine•HCl, S-mirtazapine hydrochloric acid salt]
[3]
  Hygroscopicity: very hygroscopic
[2]
  Temperature above which the compound starts to sublime: above 170 °C
[1]; [4]
  Sublimate: 0.2%

## CN1CCN2c3ncccc3Cc3ccccc3[C@H]2C1.O=C(O)/C=C/C(=O)O [S-mirtazapine•fumaric acid, S-mirtazapine fumaric acid salt]
[3]
  Hygroscopicity / affinity for water: attracts water from environmental air to form a hydrate
[1]
  Sublimation (result in words): do not sublimate

## CN1CCN2c3ncccc3Cc3ccccc3[C@H]2C1.O=C(O)/C=C\C(=O)O [S-mirtazapine•maleic acid, S-mirtazapine maleic acid salt]
[3]
  Hygroscopicity: not hygroscopic
  Hygroscopicity / affinity for water: not hygroscopic
[1]
  Sublimation (result in words): do not sublimate

## CN1CCN2c3ncccc3Cc3ccccc3C2C1.CS(=O)(=O)O (stereo not drawn) [S-mirtazapine•methanesulfonic acid, S-mirtazapine methanesulfonic acid salt]
[3]
  Hygroscopicity / affinity for water: non-hygroscopicity
[1]
  Sublimation (result in words): non-sublimation
[1]; [4]
  Sublimate: 0.1% and 0.0%
